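Grown in 96-well plates, cells were treated for 48 hours with each compound at five concentrations. Insufficient inhibition: endpoint recorded as highest concentration tested. Here, GI50 denotes the concentration required for 50% inhibition of growth.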 The source made the active and inactive calls. No stated cut-off is given here; in the data, active = GI50 up to about 1.1 µM and inactive = higher.
Experiments:
Experiment in all cases: growth of human tumour cells (NCI), 48 h
MCF7 = tested on: MCF7
Malme-3M = tested on: Malme-3M
MOLT-4 = tested on: MOLT-4
KM12 = tested on: KM12
NCI/ADR-RES = tested on: NCI/ADR-RES
SK-MEL-28 = tested on: SK-MEL-28
HT-29 = tested on: HT-29
MDA-N = tested on: MDA-N
SF-295 = tested on: SF-295
SR = tested on: SR
BT-549 = tested on: BT-549
OVCAR-3 = tested on: OVCAR-3
HL-60 = tested on: HL-60
SF-268 = tested on: SF-268
IGROV-1 = tested on: IGROV-1
SW-620 = tested on: SW-620
SK-OV-3 = tested on: SK-OV-3
UACC-62 = tested on: UACC-62
HCT-116 = tested on: HCT-116
CCRF-CEM = tested on: CCRF-CEM

Row | SMILES | GI50 (MCF7) | GI50 (Malme-3M) | GI50 (MOLT-4) | GI50 (KM12) | GI50 (NCI/ADR-RES) | GI50 (SK-MEL-28) | GI50 (HT-29) | GI50 (MDA-N) | GI50 (SF-295) | GI50 (SR) | GI50 (BT-549) | GI50 (OVCAR-3) | GI50 (HL-60) | GI50 (SF-268) | GI50 (IGROV-1) | GI50 (SW-620) | GI50 (SK-OV-3) | GI50 (UACC-62) | GI50 (HCT-116) | GI50 (CCRF-CEM)
1 | FC(F)(F)c1ccc2nc3n(c2c1)C(c1c(Cl)cccc1Cl)SC3 (centres undefined) | 16.1 µM (inactive) | 13.3 µM (inactive) | 9.48 µM (inactive) | 14.6 µM (inactive) | 11.3 µM (inactive) | 14.9 µM (inactive) | 15.4 µM (inactive) | 11.7 µM (inactive) | 16.4 µM (inactive) | 4.24 µM (inactive) | 20.7 µM (inactive) | 15.6 µM (inactive) | 2.47 µM (inactive) | 21.6 µM (inactive) | 11.5 µM (inactive) | 17.8 µM (inactive) | 14 µM (inactive) | 14.5 µM (inactive) | 10.5 µM (inactive) | 
2 | C/C(=N/NC(=S)N(C)CCc1ccccn1)c1cnccn1 | < 0.01 µM (active) | < 0.01 µM (active) | < 0.01 µM (active) | 0.0406 µM (active) | < 0.01 µM (active) | 0.933 µM (active) | < 0.01 µM (active) | 0.828 µM (active) | 0.177 µM (active) | 0.018 µM (active) | 0.398 µM (active) | < 0.01 µM (active) | < 0.01 µM (active) | < 0.01 µM (active) | < 0.01 µM (active) | < 0.01 µM (active) | 0.0235 µM (active) | 0.0986 µM (active) | < 0.01 µM (active) | < 0.0358 µM (active)
3 | CC(C)c1cc(C(C)C)c(B(c2ccccc2)c2ccccc2)c(C(C)C)c1Br | > 100 µM (inactive) | > 100 µM (inactive) | > 100 µM (inactive) | > 100 µM (inactive) | > 100 µM (inactive) | > 100 µM (inactive) | > 100 µM (inactive) | > 100 µM (inactive) | > 100 µM (inactive) | > 100 µM (inactive) | > 100 µM (inactive) | > 100 µM (inactive) | > 100 µM (inactive) | > 100 µM (inactive) | > 100 µM (inactive) | > 100 µM (inactive) | > 100 µM (inactive) | > 100 µM (inactive) | > 100 µM (inactive) | > 100 µM (inactive)
4 | CC(C)(C)c1cc(C2NCCO2)cc(C(C)(C)C)c1O (centres undefined) | 76.7 µM (inactive) | > 100 µM (inactive) | > 100 µM (inactive) | > 100 µM (inactive) | > 100 µM (inactive) | > 100 µM (inactive) | > 100 µM (inactive) | > 100 µM (inactive) | 34.6 µM (inactive) | > 100 µM (inactive) | > 100 µM (inactive) | > 100 µM (inactive) | > 100 µM (inactive) | 32.4 µM (inactive) | 96.6 µM (inactive) | > 100 µM (inactive) | 32.1 µM (inactive) | > 100 µM (inactive) | > 100 µM (inactive) | > 100 µM (inactive)
5 | CSc1ncc2c(C#N)c3ccccn3c(=O)c2n1 | > 100 µM (inactive) | > 100 µM (inactive) | > 100 µM (inactive) | > 100 µM (inactive) | > 100 µM (inactive) | > 100 µM (inactive) | > 100 µM (inactive) | > 100 µM (inactive) | > 100 µM (inactive) | > 100 µM (inactive) | > 100 µM (inactive) | > 100 µM (inactive) | > 100 µM (inactive) | > 100 µM (inactive) | > 100 µM (inactive) | 52.6 µM (inactive) | > 100 µM (inactive) | > 100 µM (inactive) | 88.5 µM (inactive) | > 100 µM (inactive)
6 | COc1cccc2c1C(=O)c1c(O)c3c(c(O)c1C2=O)C[C@@](O)(C(=O)CO)C[C@@H]3OC1CC(N2CCOCC2C#N)C(O)C(C)O1 (some centres undefined) | 0.0025 µM (active) | 0.0002 µM (active) | 1.83e-05 µM (active) | 2.55e-05 µM (active) | 5.36e-05 µM (active) | 9.73e-05 µM (active) | 2.07e-05 µM (active) | 9.08e-05 µM (active) | 1.82e-05 µM (active) | 1.27e-05 µM (active) | 5.39e-05 µM (active) | 2.27e-05 µM (active) | 2.02e-05 µM (active) | 3.82e-05 µM (active) | 8.57e-05 µM (active) | 7.23e-05 µM (active) | 0.000124 µM (active) | 9.98e-06 µM (active) | 2.71e-05 µM (active) | 1.94e-05 µM (active)
7 | Cc1cc(C)n(CN(Cn2nc(C)cc2C)c2ccccc2)n1 | 23.1 µM (inactive) | 22.8 µM (inactive) | 10.5 µM (inactive) | 16 µM (inactive) | 20.8 µM (inactive) | 19.6 µM (inactive) | 17.6 µM (inactive) | 14.5 µM (inactive) | 57.9 µM (inactive) | 0.217 µM (active) | 21.8 µM (inactive) | 30.5 µM (inactive) | 2.99 µM (inactive) | 20.4 µM (inactive) | 25.5 µM (inactive) | 18.2 µM (inactive) | 40.9 µM (inactive) | 10.6 µM (inactive) | 19.8 µM (inactive) | 23.3 µM (inactive)
8 | CCOC(=O)NN(C(=O)OCC)C(=C(c1ccccc1)N1CCOCC1)N(NC(=O)OCC)C(=O)OCC | > 100 µM (inactive) | > 100 µM (inactive) | > 100 µM (inactive) | > 100 µM (inactive) | > 100 µM (inactive) | > 100 µM (inactive) | > 100 µM (inactive) | > 100 µM (inactive) | > 100 µM (inactive) | > 100 µM (inactive) | > 100 µM (inactive) | > 100 µM (inactive) | > 100 µM (inactive) | > 100 µM (inactive) | > 100 µM (inactive) | > 100 µM (inactive) | > 100 µM (inactive) | > 100 µM (inactive) | > 100 µM (inactive) | > 100 µM (inactive)
9 | CC(C)(CCC(C)(C)N1OC1c1ccccc1)N1OC1c1ccccc1 (centres undefined) | 28.7 µM (inactive) | > 100 µM (inactive) |  | 57.1 µM (inactive) | 58.6 µM (inactive) | > 100 µM (inactive) | 54.7 µM (inactive) | 39.9 µM (inactive) | 44.5 µM (inactive) | 14.1 µM (inactive) | 38.3 µM (inactive) |  | 21 µM (inactive) | 95.1 µM (inactive) |  | 78 µM (inactive) | 62.8 µM (inactive) | > 100 µM (inactive) | 56.8 µM (inactive) | 9.31 µM (inactive)
10 | OCC1OC(n2cnc3c2NC=NC[C@H]3O)CC1O (some centres undefined) | 441 µM (inactive) | 458 µM (inactive) | 418 µM (inactive) | 495 µM (inactive) | 462 µM (inactive) | 493 µM (inactive) |  | > 500 µM (inactive) | 448 µM (inactive) | 359 µM (inactive) | > 500 µM (inactive) | 497 µM (inactive) | 417 µM (inactive) | 472 µM (inactive) | 450 µM (inactive) |  | 467 µM (inactive) | 415 µM (inactive) | 483 µM (inactive) | 392 µM (inactive)
11 | O=C(/C=C/c1ccsc1)c1ccco1 | 2.21 µM (inactive) |  | 4.34 µM (inactive) | 4.8 µM (inactive) | 16.6 µM (inactive) | 12.8 µM (inactive) | 9.95 µM (inactive) | 12.1 µM (inactive) | 14.2 µM (inactive) | 2.28 µM (inactive) | 18.5 µM (inactive) | 14 µM (inactive) | 7.26 µM (inactive) | 17.1 µM (inactive) | 10.4 µM (inactive) | 7.55 µM (inactive) | 18.5 µM (inactive) | 14.6 µM (inactive) | 5.97 µM (inactive) | 5.86 µM (inactive)
12 | CCCCc1c(N(C)C)c(OC(C)=O)c(-c2cn(C)c3ccccc23)oc1=O | 13.1 µM (inactive) | 24.8 µM (inactive) | 47.9 µM (inactive) | 14.2 µM (inactive) | 20.3 µM (inactive) | 21.7 µM (inactive) | 15.5 µM (inactive) | 18.1 µM (inactive) | 25.5 µM (inactive) | > 100 µM (inactive) | 28.3 µM (inactive) | 25.9 µM (inactive) | 17.7 µM (inactive) | 29.3 µM (inactive) |  | 23.6 µM (inactive) | 32.4 µM (inactive) | 14.1 µM (inactive) | 17.3 µM (inactive) | 33.4 µM (inactive)
13 | Clc1ccccc1/C=C/c1nsc(/C=C/c2ccccc2Cl)n1 | 32 µM (inactive) | 53.7 µM (inactive) | 33.5 µM (inactive) | 88.9 µM (inactive) | 45.2 µM (inactive) | > 100 µM (inactive) | 35.2 µM (inactive) | 35 µM (inactive) | 54 µM (inactive) | 22.1 µM (inactive) | 92 µM (inactive) | 40.1 µM (inactive) | 21.6 µM (inactive) | 55.5 µM (inactive) | 84.1 µM (inactive) |  | 70.1 µM (inactive) |  | 34.8 µM (inactive) | 22.7 µM (inactive)
14 | N/C(=N\Nc1ccc(C(=O)O)cc1)c1cnccn1 | > 100 µM (inactive) | 37.2 µM (inactive) | > 100 µM (inactive) | > 100 µM (inactive) | > 100 µM (inactive) | > 100 µM (inactive) | > 100 µM (inactive) | > 100 µM (inactive) | > 100 µM (inactive) | > 100 µM (inactive) | > 100 µM (inactive) | > 100 µM (inactive) | < 0.01 µM (active) | > 100 µM (inactive) | > 100 µM (inactive) | > 100 µM (inactive) | > 100 µM (inactive) | > 100 µM (inactive) | > 100 µM (inactive) | 

— ChEMBL document CHEMBL1201862, “PubChem BioAssay data set” (2004)
